Columns and labels:
Ldtfm [1] = biological target: T1, Ldtfm (Enterococcus faecium, UniProt Q3Y185); assay: stopped-flow competition with nitrocefin at […] nm; assay type: binding; conditions: covalent; irreversible acylation; 22 µM enzyme, 50 µM nitrocefin, 64 µM imipenem; 100 mM sodium phosphate pH 6.0; 20 °C
T1 construct: gene HMPREF0351_12555; catalytic domain, residues 341 to 466

Ldtfm [2] = biological target: T1, Ldtfm; assay: stopped-flow spectrophotometry at […] nm, slope of kobs against nitrocefin concentration; assay type: biochemical; conditions: covalent; reversible acylation of catalytic Cys; 11 µM enzyme; 100 mM sodium phosphate pH 6.0; 20 °C

T1 sequence (Q3Y185 entry or part of it): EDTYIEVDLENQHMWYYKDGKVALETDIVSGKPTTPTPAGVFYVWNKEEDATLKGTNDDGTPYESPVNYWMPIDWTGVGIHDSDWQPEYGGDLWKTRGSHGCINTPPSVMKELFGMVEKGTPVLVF

## C[C@@H](O)[C@H]1C(=O)N2C(C(=O)O)=C(SCCN=CN)C[C@H]12 [imipenem]
Ldtfm [1]
  stopped-flow competition with nitrocefin at 486 nm: imipenem gradually replaced nitrocefin in the enzyme active site

## O=C(Cc1cccs1)N[C@@H]1C(=O)N2C(C(=O)O)=C(/C=C/c3ccc([N+](=O)[O-])cc3[N+](=O)[O-])CS[C@H]12 [nitrocefin]
Ldtfm [2]
  efficacy of the acylation reaction: 24,000 ± 700 M^−1 s^−1
